Experimental data taken from patent US11591322B2, “Certain chemical compositions and methods of use thereof” (Algen Biotechnologies, Inc., priority 2020, dated 2023).
pEC50, pIC50: −log10 of the molar value.

Assays:
[1] = Pharmacokinetic and tissue distribution study, liver versus blood in mice; type: in vivo; settings: CD-1 mice, single oral dose 5 mg/kg suspension, 2 hours; compared with NVP-2 (FIG. 1)
Description: For mice experiments, the liver and blood pharmacokinetics of compounds were analyzed in CD-1 mice following a single oral administration dose of 5 mg/kg compound suspension.
Liver and blood samples for determination of compound concentration were obtained at 2 hours following administration of compounds (n=3 for each compound). The ratios of compound concentrations in liver versus blood in CD-1 mice following a single oral administration dose of 5 mg/kg compound suspension are summarized in FIG. 1.

CDK9/CyclinT = CDK9/CyclinT (Homo sapiens (Human), UniProt P50750); test: CDK9 biochemical assay (Kinase-Glo Max luminescence); settings: 30° C. for 45 minutes
Description: To each well of a 96-well plate was added 5× kinase assay buffer with 10 mM DTT (6 μL), 500 μM ATP (1 μL), 5×CDK substrate (10 μL), and water (8 μL). 5 μL of compound were added to the test and positive control groups, while 5 μL of solvent was added to the blank groups. 100 ng of CDK9/CyclinT in 20 μL water was added to the test and positive control groups, while 20 μL of 1× kinase assay buffer was added to the blank groups. The reaction mixtures were incubated at 30° C. for 45 minutes, and 50 μL of Kinase-Glo® Max was added to each well and the plates were shielded from light and incubated for 15 minutes at room temperature. Luminescence was measured on a microplate reader and IC50 values were calculated using Prism 9 software.

Hep3B cells = test: Cancer cell viability assay (CellTiter-Glo 2.0), Hep3B; type: cell-based, Human; settings: 72 hours compound treatment
Description: (§1) Human liver cancer cell lines HepG2, Hep3B, Huh7, and SK-HEP-1 cells were rinsed and trypsinized with 0.25% trypsin (Corning #25-053-CI) in an incubator at 37° C. until detached. The cells were resuspended and seeded in 96-well plates to a density of 5,000 cells per well. Following cell adhesion, compounds were added to a final concentration of 2× dilution. 72 hours following compound treatment, CellTiter-Glo® 2.0 was added to the well in a 2:1 ratio of media/CellTiter-Glo® 2.0. The plates were shielded from light, shaken for 2 minutes, and incubated for 10 minutes. Luminescence was measured on a microplate reader and EC50 values were calculated using Prism 9 software.

HepG2 cells = test: Cancer cell viability assay (CellTiter-Glo 2.0), HepG2; type: cell-based, Human; settings: HepG2, 72 hours compound treatment
Description: as §1

SK-HEP-1 cells = test: Cancer cell viability assay (CellTiter-Glo 2.0), SK-HEP-1; type: cell-based, Human; settings: SK-HEP-1, 72 hours compound treatment
Description: as §1

Huh7 cells = test: Cancer cell viability assay (CellTiter-Glo 2.0), Huh7; type: cell-based, Human; settings: Huh7, 72 hours compound treatment
Description: as §1

[2] = Pharmacokinetic study, jugular vein versus portal vein blood in rats; type: in vivo, Sprague-Dawley (SD) rats; settings: SD rats, single oral dose 5 mg/kg suspension; compared with NVP-2 (FIG. 2)
Description: For rat experiments, the pharmacokinetics of compounds in blood collected from jugular vein and portal vein were analyzed in Sprague-Dawley (SD) rats following a single oral administration dose of 5 mg/kg compound suspension. Blood samples for determination of compound concentration were obtained from jugular vein and portal vein at 0.25 h, 0.5 h, 1 h, 2 h, 4 h, 6 h, 8 h, and 24 h following administration of compounds (n=3 for each compound). Collected liver and blood samples were analyzed using an LC-MS/MS method to quantify compound concentrations. The ratios of compound concentrations in blood collected from jugular vein versus portal vein in Sprague-Dawley (SD) rats following a single oral administration dose of 5 mg/kg compound suspension are summarized in FIG. 2.

[3] = Tolerability and safety assessment study (body weight change); type: in vivo; settings: BALB/c nude mice; compared with NVP-2 (FIG. 3)
Description: Based on the body weight, BALB/c nude mice were randomly assigned to respective groups using a computer-generated randomization procedure. Body weights of all animals were measured daily to record weight changes (relative to day 1) of BALB/c nude mice treated with vehicle and compounds. For routine monitoring, all study animals were monitored for behavior such as mobility, food and water consumption, body weight, eye/hair matting and any other abnormal effect. Any mortality and/or abnormal clinical signs were recorded. The animals were euthanized when they lost significant body mass (emaciated, obvious body weight loss >20%).

Chain of CDK9/CyclinT (P50750 whole entry): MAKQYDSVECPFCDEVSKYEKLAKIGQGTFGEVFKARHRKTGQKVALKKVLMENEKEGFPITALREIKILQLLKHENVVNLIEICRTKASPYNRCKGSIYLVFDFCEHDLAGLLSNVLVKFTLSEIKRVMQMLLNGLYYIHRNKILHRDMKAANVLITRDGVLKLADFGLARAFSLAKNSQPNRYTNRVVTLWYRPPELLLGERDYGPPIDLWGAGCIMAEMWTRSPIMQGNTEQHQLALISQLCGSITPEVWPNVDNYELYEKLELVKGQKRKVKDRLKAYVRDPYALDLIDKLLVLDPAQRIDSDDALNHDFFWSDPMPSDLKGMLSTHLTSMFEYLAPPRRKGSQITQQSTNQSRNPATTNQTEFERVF
Chain of CDK9/CyclinT (O60563 whole entry partner): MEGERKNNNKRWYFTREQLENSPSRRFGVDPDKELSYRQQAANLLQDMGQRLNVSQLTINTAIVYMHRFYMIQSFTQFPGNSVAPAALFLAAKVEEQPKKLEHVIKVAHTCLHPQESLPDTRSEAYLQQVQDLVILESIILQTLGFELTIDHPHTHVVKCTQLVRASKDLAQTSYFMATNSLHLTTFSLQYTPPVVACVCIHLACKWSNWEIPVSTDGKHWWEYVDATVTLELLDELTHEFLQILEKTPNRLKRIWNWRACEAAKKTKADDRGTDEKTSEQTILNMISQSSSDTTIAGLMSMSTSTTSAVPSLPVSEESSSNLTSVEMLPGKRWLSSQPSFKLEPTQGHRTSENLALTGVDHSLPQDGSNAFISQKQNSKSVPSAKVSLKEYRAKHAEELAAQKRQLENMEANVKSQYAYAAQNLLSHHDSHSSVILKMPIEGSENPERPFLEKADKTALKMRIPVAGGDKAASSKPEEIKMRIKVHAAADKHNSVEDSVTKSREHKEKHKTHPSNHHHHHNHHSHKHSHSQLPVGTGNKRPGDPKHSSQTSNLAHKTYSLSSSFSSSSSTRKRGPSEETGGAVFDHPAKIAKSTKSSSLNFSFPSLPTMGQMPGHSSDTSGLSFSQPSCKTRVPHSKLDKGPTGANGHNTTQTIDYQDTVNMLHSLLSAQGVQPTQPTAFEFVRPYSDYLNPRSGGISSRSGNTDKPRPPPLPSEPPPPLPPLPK

SMILES: C[C@H](COCCNS(=O)(=O)C(F)(F)F)NC1CCC(Nc2cc(-c3cccc(NCC4(C#N)CCOCC4)n3)c(Cl)cn2)CC1 (mixture of isomers) [Compound 40, N-(2-(2-(((1r,4r)-4-((5′-chloro-6-(((4-cyanotetrahydro-2H-pyran-4-yl)methyl)amino)-[2,4′-bipyridin]-2′-yl)amino)cyclohexyl)amino)propoxy)ethyl)-1,1,1-trifluoromethanesulfonamide]
- ratio of compound concentrations in liver versus blood [1]: higher liver/blood ratios than NVP-2
- pIC50 (CDK9/CyclinT): 8.30 to 8.60
- pEC50 (Hep3B cells): 6.30 to 7.00
- pEC50 (HepG2 cells): > 7.00

SMILES: C[C@H](COCc1nn[nH]n1)N[C@H]1CC[C@H](Nc2cc(-c3cccc(NCC4(C#N)CCOCC4)n3)c(Cl)cn2)CC1 [Compound 2, 4-(((2′-(((1R,4R)-4-(((R)-1-((2H-tetrazol-5-yl)methoxy)propan-2-yl)amino)cyclohexyl)amino)-5′-chloro-[2,4′-bipyridin]-6-yl)amino)methyl)tetrahydro-2H-pyran-4-carbonitrile]
- pIC50 (CDK9/CyclinT): < 8.00
- pEC50 (SK-HEP-1 cells): < 6.00
- pEC50 (Huh7 cells): 6.00 to 6.30
- pEC50 (Hep3B cells): < 6.00
- pEC50 (HepG2 cells): < 6.00

SMILES: CCOC(=O)COC[C@H](C)NC1CCC(Nc2cc(-c3cccc(NCC4(C#N)CCOCC4)n3)c(Cl)cn2)CC1 (stereo partly shown) [Compound 6]
- pIC50 (CDK9/CyclinT): > 8.60
- pEC50 (SK-HEP-1 cells): > 7.00
- ratio of compound concentrations in blood from jugular vein versus portal vein (liver efflux/influx ratio) [2]: lower liver efflux/influx ratio than NVP-2
- pEC50 (Huh7 cells): > 7.00
- pEC50 (Hep3B cells): 6.30 to 7.00
- pEC50 (HepG2 cells): 6.00 to 6.30

SMILES: C[C@@H](COCC(=O)O)NC1CCC(Nc2cc(-c3cccc(NCC4(C#N)CCOCC4)n3)c(Cl)cn2)CC1 (stereo partly drawn) [Compound 9, 2-((S)-2-(((1R,4S)-4-((5′-chloro-6-(((4-cyanotetrahydro-2H-pyran-4-yl)methyl)amino)-[2,4′-bipyridin]-2′-yl)amino)cyclohexyl)amino)propoxy)acetic acid]
- pIC50 (CDK9/CyclinT): 8.00 to 8.30
- pEC50 (SK-HEP-1 cells): < 6.00
- pEC50 (Huh7 cells): < 6.00
- pEC50 (Hep3B cells): < 6.00
- pEC50 (HepG2 cells): < 6.00

SMILES: CC(C)OC(=O)COC[C@H](C)N[C@H]1CC[C@H](Nc2cc(-c3cccc(NCC4(C#N)CCOCC4)n3)c(Cl)cn2)CC1 [Compound 16, isopropyl 2-((S)-2-(((1r,4S)-4-((5′-chloro-6-(((4-cyanotetrahydro-2H-pyran-4-yl)methyl)amino)-[2,4′-bipyridin]-2′-yl)amino)cyclohexyl)amino)propoxy)acetate]
- pIC50 (CDK9/CyclinT): 8.00 to 8.30
- pEC50 (SK-HEP-1 cells): > 7.00
- pEC50 (Huh7 cells): > 7.00
- pEC50 (HepG2 cells): 6.30 to 7.00

SMILES: C[C@H](COCC(=O)OC(C)(C)C)N[C@H]1CC[C@H](Nc2cc(-c3cccc(NCC4(C#N)CCOCC4)n3)c(Cl)cn2)CC1 [Compound 18, tert-butyl 2-((R)-2-(((1r,4R)-4-((5′-chloro-6-(((4-cyanotetrahydro-2H-pyran-4-yl)methyl)amino)-[2,4′-bipyridin]-2′-yl)amino)cyclohexyl)amino)propoxy)acetate]
- ratio of compound concentrations in liver versus blood [1]: higher liver/blood ratios than NVP-2
- pIC50 (CDK9/CyclinT): < 8.00
- toxicity (mean weight changes relative to day 1) [3]: lower toxicity than NVP-2
- pEC50 (SK-HEP-1 cells): > 7.00
- ratio of compound concentrations in blood from jugular vein versus portal vein (liver efflux/influx ratio) [2]: lower liver efflux/influx ratio than NVP-2
- pEC50 (Huh7 cells): > 7.00
- pEC50 (Hep3B cells): > 7.00
- pEC50 (HepG2 cells): > 7.00

SMILES: C[C@@H](COCC(=O)OC(C)(C)C)N[C@H]1CC[C@H](Nc2cc(-c3cccc(NCC4(C#N)CCOCC4)n3)c(Cl)cn2)CC1 [Compound 19, tert-butyl 2-((S)-2-(((1r,4S)-4-((5′-chloro-6-(((4-cyanotetrahydro-2H-pyran-4-yl)methyl)amino)-[2,4′-bipyridin]-2′-yl)amino)cyclohexyl)amino)propoxy)acetate]
- pIC50 (CDK9/CyclinT): 8.30 to 8.60
- pEC50 (SK-HEP-1 cells): > 7.00
- pEC50 (Huh7 cells): > 7.00
- pEC50 (HepG2 cells): > 7.00

SMILES: C[C@H](COCc1nnn(C)n1)N[C@H]1CC[C@H](Nc2cc(-c3cccc(NCC4(C#N)CCOCC4)n3)c(Cl)cn2)CC1 [Compound 33, 4-(((5′-chloro-2′-(((1R,4r)-4-(((R)-1-((2-methyl-2H-tetrazol-5-yl)methoxy)propan-2-yl)amino)cyclohexyl)amino)-[2,4′-bipyridin]-6-yl)amino)methyl)tetrahydro-2H-pyran-4-carbonitrile]
- ratio of compound concentrations in liver versus blood [1]: higher liver/blood ratios than NVP-2
- pIC50 (CDK9/CyclinT): 8.00 to 8.30
- pEC50 (Hep3B cells): 6.30 to 7.00
- pEC50 (HepG2 cells): > 7.00
